# Experimental data published in patent US20250186379A1, “METHODS AND AGENTS FOR DECREASING INSULIN RESISTANCE” (Whitehead Institute for Biomedical Research, priority 2021, published 2025).
# Entries after “also recorded” stand apart in the source; their conditions may differ.
# What was measured:
# [1] = test system: insulin signaling proteins (IR, IRS1, AKT, ERK, GSK3); assay: Immunoblot of phosphorylated over total insulin signaling proteins in HepG2 cells; format: cell-based, human
# Procedure: Cells were washed with ice-cold PBS and lysed in Cell Lytic M (Sigma-Aldrich C2978) supplemented with protease and phosphatase inhibitors (Sigma Aldrich, 11873580001 and 4906837001) directly on the wells. Lysates were placed into a 1.5 ml tube and mixed at 4° C. for 20 min and then centrifuged at 13,000 rpm for 15 min. Protein concentration was determined using a BCA Protein Assay Kit (Life Technologies, 23250) according to the manufacturer's instructions. Equal amounts of protein (5-50 μg per sample) were separated on 10% or 12% Bis-Tris gels in 5% XT MOPS running buffer (Bio-Rad Laboratories, 1610788) at 100V until dye front reached the end of the gel. Protein was then transferred to a 0.45 μM PVDF membrane (Millipore, IPVH00010) in ice cold transfer buffer (25 mM Tris, 192 mM glycine, 20% methanol) at 300 mA for 1 hour or 250 mA for 2 hours at 4° C. After the transfer, membranes were blocked in 5% non-fat milk (LabScientific, M0842) dissolved in TBST (2% Tris HCl pH 8.0, 1.3% 5M NaCl, 0.05% Tween 20) or 5% BSA (VWR, 102643-516) in 1×TBST for 15 min to 1 hour at room temperature shaking. Membranes were then incubated overnight at 4° C. in 1:1000 primary antibody in 5% non-fat milk in TBST or 5% BSA in TBST. BSA was used for immunoblotting phosphorylated proteins, otherwise milk was used. Membranes were then washed three times for 5 min in TBST shaking at room temperature prior to incubation in 1:10,000 secondary antibody in 5% non-fat milk in TBST for 1 hour at room temperature. This was followed by three 10-minute washes in TBST. Membranes were developed with ECL substrate (Thermo Scientific, 34080) and imaged using a CCD camera. Immunoblot quantification was performed using the “analyze gel” tool on Fiji/ImageJ v2.1.0/153c.
# The following primary antibodies were used for WB: anti-phosphorylated insulin receptor (Abcam, ab60946 and Cell Signaling 3026), anti-insulin receptor beta (Cell Signaling, 23413; Bethyl, A303-712A or Cell Signaling, 3025), anti-insulin receptor alpha (Cell Signaling, 74118), anti-phosphorylated AKT (Cell Signaling, 4056), anti-AKT (Cell Signaling, 9272), anti-phosphorylated ERK (Cell Signaling, 4377), anti-ERK (Cell Signaling, 9102), anti-beta Actin (Sigma Aldrich, A5441). The following secondary antibodies were used: donkey anti-rabbit IgG (Cytiva Life Sciences, NA934-1ML) and sheep anti-mouse IgG (Sigma Aldrich, NXA931V).
# Cells were washed with ice-cold PBS (Life Technologies, AM9625) and lysed in Cell Lytic M (Sigma Aldrich C2978) supplemented with protease and phosphatase inhibitors (Sigma Aldrich, 11873580001 and 4906837001) directly on the wells. Lysates were placed into a 1.5 ml tube and mixed at 4° C. for 20 minutes, sonicated and then centrifuged at 12,000×g for 15 minutes. Super natant was collected and protein concentration was determined using a BCA Protein Assay Kit (Life Technologies, 23250) according to the manufacturer's instructions. Equal amounts of protein (5-50 μg per sample) were separated on 10% or 12% Bis-Tris gels in 5% XT MOPS running buffer (Bio-Rad Laboratories, 1610788) at 100V until dye front reached the end of the gel. Protein was then transferred to a 0.45 μM PVDF membrane (Millipore, IPVH00010) in ice cold transfer buffer (25 mM Tris, 192 mM glycine, 20% methanol) at 300 mA for 1 hour or 250 mA for 2 hours at 4° C. After the transfer, membranes were blocked in either 5% non-fat milk (LabScientific, M0842) dissolved in TBST (2% Tris HCl pH 8.0, 1.3% 5M NaCl, 0.05% Tween 20) or 5% BSA (VWR, 102643-516) in 1×TBST for 15 minutes to 1 hour at room temperature with shaking. Membranes were then incubated overnight at 4° C. in 1:1000 primary antibody (specific antibodies listed below) in 5% non-fat milk in TBST or 5% BSA in TBST. BSA was used for immunoblotting phosphorylated proteins, otherwise milk was used. […]
# [2] = test system: reactive oxygen species (ROS); assay: Quantification of ROS using a ROS-sensitive dye in HepG2 cells; format: cell-based, human
# Procedure: Cells expressing endogenous IR tagged with GFP were treated with ROS dye (Abcam, ab186029) following the manufacturer's instructions. […] Cells were incubated at 37° C. with 5% CO2 in a humidified incubator for 30 min. Cells were imaged at 37° C. using the LSM880 Microscope with Airyscan detector with 63×objective and Zen Black software (ZEISS) at the W.M. Keck Microscopy Facility, MIT. Images were then processed using Fiji/ImageJ v2.1.0/153c. Quantification of the ROS dye fluorescence intensity per cell was performed using Fiji. Using the polygon selection tool on Fiji/ImageJ v2.1.0/153c, a polygon was drawn around a cell outline, which was identified by looking at the IR-GFP channel. The average ROS dye fluorescence intensity in the polygon (=in the cell) was determined using the measure tool on Fiji/ImageJ v2.1.0/153c. […] Cells were incubated at 37° C. with 5% CO2 in a humidified incubator for 30 minutes. Cells were imaged at 37° C. using the LSM880 Microscope with Airyscan detector with 63× objective and Zen Black software (ZEISS) at the W.M. Keck Microscopy Facility, MIT. Images were then processed using Fiji/ImageJ v2.1.0/153c. Quantification of the ROS dye fluorescence intensity per cell was performed using Fiji. […] The average ROS dye fluorescence intensity in the polygon (=in the cell) was determined using the measure tool on Fiji/ImageJ v2.1.0/153c.
# [3] = insulin-sensitive HepG2 cells, acute insulin stimulation
molecule,measurement,setting,value
"insulin: insulin (Sigma Aldrich, I9278-5ML) used for acute stimulation and chronic physiological or pathological exposure",phosphorylation of GSK3 after insulin stimulation,[1]; cells exposed to pathologic levels (3 nM) of insulin for two days,decreased phosphorylation of GSK3
same,phosphorylation of insulin signaling proteins after insulin stimulation,[1]; cells exposed to pathologic levels (3 nM) of insulin for two days vs physiologic (0.1 nM),"reduced phosphorylation of IR, IRS1, AKT and ERK"
same,GSK3 phosphorylation,"[1]; insulin-sensitive HepG2 cells, 3 nM insulin 5 minutes",increased GSK3 phosphorylation
same,AKT and ERK pathway activation,[1]; [3],stimulate; also recorded: AKT and ERK pathway activation
same,IR phosphorylation,[1]; [3],stimulate; also recorded: induced IR phosphorylation
"CN(C)C(=N)N=C(N)N [metformin, reference compound]","IRS1 phosphorylation (pIRS1 over total IRS1, western blot)",[1]; insulin-resistant cells + metformin (FIG. 38),partial rescue of IRS1 phosphorylation; also recorded: partially rescues phosphorylation of IRS1
same,ROS levels (ROS-sensitive dye),"[2]; insulin resistant HepG2 cells, 12.5 μM metformin",reduced ROS levels to those found in insulin sensitive cells; also recorded: reduced ROS levels to those found in insulin-sensitive cells
TNFα,production of ROS,"[2]; HepG2 cells (FIG. 27C), also refs 19,77-79",excessive production of ROS
